Calls of active or inactive are those of the source. The rule behind the calls is not given here.
Legend:
[1] = test system: PC-3; test: Antiproliferative activity against human PC-3 cells assessed as inhibition of cell growth incubated for 72 hrs by MTT assay; format: functional, cell-based; settings: PC-3, 72 h
[2] = Cytotoxicity against human HUVEC cells assessed as inhibition of cell growth incubated for 72 hrs by MTT assay; format: toxicity, cell-based
[3] = Cytotoxicity against human GES1 cells assessed as inhibition of cell growth incubated for 72 hrs by MTT assay; format: toxicity, cell-based
[4] = test system: MDA-MB-468; test: Antiproliferative activity against human MDA-MB-468 cells assessed as inhibition of cell growth incubated for 72 hrs by MTT assay; format: functional, cell-based; settings: MDA-MB-468, 72 h
[5] = test system: A549; test: Antiproliferative activity against human A549 cells assessed as inhibition of cell growth incubated for 72 hrs by MTT assay; format: functional, cell-based; settings: A549, 72 h
[6] = test system: HCT-116; test: Antiproliferative activity against human HCT-116 cells assessed as inhibition of cell growth incubated for 72 hrs by MTT assay; format: functional, cell-based; settings: HCT-116, 72 h
[7] = test system: SGC-7901; test: Antiproliferative activity against human SGC-7901 cells assessed as inhibition of cell growth incubated for 72 hrs by MTT assay; format: functional, cell-based; settings: SGC-7901, 72 h
[8] = test system: HepG2; test: Antiproliferative activity against human HepG2 cells assessed as inhibition of cell growth incubated for 72 hrs by MTT assay; format: functional, cell-based; settings: HepG2, 72 h
[9] = test system: HL-60; test: Antiproliferative activity against human HL-60 cells assessed as inhibition of cell growth incubated for 72 hrs by MTT assay; format: functional, cell-based; settings: HL-60, 72 h
[10] = test system: MV4-11; test: Antiproliferative activity against human MV4-11 cells assessed as inhibition of cell growth incubated for 72 hrs by MTT assay; format: functional, cell-based; settings: MV4-11, 72 h
[11] = Half life in Sprague-Dawley rat at 2 mg/kg,iv administration by LC-MS/MS analysis; format: ADME, organism-based; settings: in vivo
[12] = AUC (0 to t) in Sprague-Dawley rat at 2 mg/kg,iv administration by LC-MS/MS analysis; format: ADME, organism-based; settings: in vivo
[13] = AUC (0 to t) in Sprague-Dawley rat at 10 mg/kg,ip administration by LC-MS/MS analysis; format: ADME, organism-based; settings: in vivo
[14] = Volume of distribution at steady state in Sprague-Dawley rat at 10 mg/kg,ip administration by LC-MS/MS analysis; format: ADME, organism-based; settings: in vivo
[15] = Clearance in Sprague-Dawley rat at 2 mg/kg,iv administration by LC-MS/MS analysis; format: ADME, organism-based; settings: in vivo
[16] = Clearance in Sprague-Dawley rat at 10 mg/kg,ip administration by LC-MS/MS analysis; format: ADME, organism-based; settings: in vivo
[17] = Bioavailability in Sprague-Dawley rat at 2 mg/kg,iv administration by LC-MS/MS analysis; format: ADME, organism-based; settings: in vivo
[18] = molecular target: Myc proto-oncogene protein (Homo sapiens) (UniProt P01106); test: Inhibition of MYC in human PC-3 cells assessed as downregulation of MYC expression incubated for 24 hrs by Western blotting analysis; format: cell-based
Chain of Myc proto-oncogene protein (Homo sapiens) (P01106 whole entry): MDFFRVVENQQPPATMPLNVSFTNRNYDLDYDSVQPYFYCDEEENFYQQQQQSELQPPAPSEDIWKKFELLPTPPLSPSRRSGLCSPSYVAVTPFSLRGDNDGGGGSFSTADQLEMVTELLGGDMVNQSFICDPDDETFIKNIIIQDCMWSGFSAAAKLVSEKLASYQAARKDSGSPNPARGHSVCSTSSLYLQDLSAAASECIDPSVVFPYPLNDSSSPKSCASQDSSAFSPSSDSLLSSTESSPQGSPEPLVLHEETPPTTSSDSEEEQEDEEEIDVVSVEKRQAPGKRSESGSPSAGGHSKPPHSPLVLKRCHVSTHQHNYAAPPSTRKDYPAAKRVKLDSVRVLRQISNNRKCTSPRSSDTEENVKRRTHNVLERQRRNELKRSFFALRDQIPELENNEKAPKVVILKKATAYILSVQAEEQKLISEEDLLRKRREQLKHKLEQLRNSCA

[19] = molecular target: Myc proto-oncogene protein (Homo sapiens) (UniProt P01106); test: Inhibition of MYC in human PC-3 cells assessed as downregulation of MYC expression at 1 uM incubated for 24 hrs by Western blotting analysis relative to control; format: cell-based
[20] = molecular target: Myc proto-oncogene protein (Homo sapiens) (UniProt P01106); test: Inhibition of MYC in human PC-3 cells assessed as downregulation of MYC expression at 10 uM incubated for 24 hrs in presence of proteasome inhibitor MG132 by Western blotting analysis; format: cell-based
[21] = molecular target: T1, c-Myc/c-Max (Homo sapiens) (UniProt P01106+P61244); test: Inhibition of MYC/MAX protein-protein interaction in human PC-3 cells at 1 uM incubated for 30 mins; format: cell-based
T1 sequence (P01106 whole entry): as above
T1 sequence (P61244 2-160 partner limits assumed): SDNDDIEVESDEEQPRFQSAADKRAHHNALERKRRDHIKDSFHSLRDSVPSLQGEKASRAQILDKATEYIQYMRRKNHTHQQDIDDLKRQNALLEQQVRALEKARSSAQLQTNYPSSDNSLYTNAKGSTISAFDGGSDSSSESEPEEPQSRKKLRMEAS

[22] = molecular target: Myc proto-oncogene protein (Homo sapiens) (UniProt P01106); test: Binding affinity to MYC in human PC-3 cells assessed as decrease in melting temperature at 10 uM with 37 to 52 degreeC incubated for 1 hr by CETSA based Western blotting analysis; format: cell-based
[23] = molecular target: Protein max (Homo sapiens) (UniProt P61244); test: Binding affinity to MAX in human PC-3 cells assessed as effect on protein thermal stabilization at 10 uM with 37 to 58 degreeC incubated for 1 hr by CETSA based Western blotting analysis; format: cell-based
Chain of Protein max (Homo sapiens) (P61244 whole entry): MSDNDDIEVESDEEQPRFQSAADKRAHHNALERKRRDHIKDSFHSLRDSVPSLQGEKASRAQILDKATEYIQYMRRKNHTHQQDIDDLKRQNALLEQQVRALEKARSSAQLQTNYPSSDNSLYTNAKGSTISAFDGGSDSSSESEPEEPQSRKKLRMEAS

[24] = molecular target: T1, c-Myc/c-Max (Homo sapiens); test: Inhibition of MYC/MAX protein-protein interaction in human PC-3 cells at 10 uM incubated for 1 hr by Co-immunoprecipitation based immunoblotting analysis; format: cell-based
[25] = test system: PC-3; test: Antitumor activity against human PC-3 cells xenografted in BALB/C mouse assessed as reduction in tumor volume at ip administrated daily for 21 consecutive days; format: functional, organism-based
[26] = test system: PC-3; test: Antitumor activity against human PC-3 cells xenografted in BALB/C mouse assessed as reduction in tumor weight at ip administrated daily for 21 consecutive days; format: functional, organism-based
[27] = test system: PC-3; test: Antitumor activity against human PC-3 cells xenografted in BALB/C mouse assessed as tumor growth inhibition at 75 mg/kg,ip administrated daily for 21 consecutive days relative to control; format: functional; settings: read-out: TGI
[28] = test system: PC-3; test: Antitumor activity against human PC-3 cells xenografted in BALB/C mouse assessed as tumor growth inhibition at 100 mg/kg,ip administrated daily for 21 consecutive days relative to control; format: functional; settings: read-out: TGI
[29] = Toxicity in BALB/C mouse xenografted with human PC-3 cells assessed as body weight loss at 50 to 100 mg/kg,ip administrated daily for 21 consecutive days; format: organism-based; settings: in vivo, dose 50-100 mg/kg
[30] = Toxicity in BALB/C mouse xenografted with human PC-3 cells assessed as histopathological change in heart at 50 to 100 mg/kg,ip administrated daily for 21 consecutive days by hematoxylin and eosin staining based microscopic analysis; format: organism-based; settings: in vivo, dose 50-100 mg/kg
[31] = Toxicity in BALB/C mouse xenografted with human PC-3 cells assessed as histopathological change in liver at 50 to 100 mg/kg,ip administrated daily for 21 consecutive days by hematoxylin and eosin staining based microscopic analysis; format: organism-based; settings: in vivo, dose 50-100 mg/kg
[32] = Toxicity in BALB/C mouse xenografted with human PC-3 cells assessed as histopathological change in spleen at 50 to 100 mg/kg,ip administrated daily for 21 consecutive days by hematoxylin and eosin staining based microscopic analysis; format: organism-based; settings: in vivo, dose 50-100 mg/kg
[33] = test system: Myc-CaP; test: Antitumor activity against mouse Myc-CaP cells implanted in FVB mouse assessed as reduction in tumor volume at ip administrated daily for 14 consecutive days; format: functional, organism-based
[34] = test system: Myc-CaP; test: Antitumor activity against mouse Myc-CaP cells implanted in FVB mouse assessed as tumor growth inhibition at 30 mg/kg,ip administrated daily for 14 consecutive days relative to control; format: functional; settings: read-out: TGI
[35] = test system: Myc-CaP; test: Antitumor activity against mouse Myc-CaP cells implanted in FVB mouse assessed as tumor growth inhibition at 50 mg/kg,ip administrated daily for 14 consecutive days relative to control; format: functional; settings: read-out: TGI
[36] = Toxicity in FVB mouse implanted with mouse Myc-CaP cells assessed as histopathological change in heart at 10 to 50 mg/kg,ip administrated daily for 14 consecutive days by hematoxylin and eosin staining based microscopic analysis; format: organism-based; settings: in vivo, dose 10-50 mg/kg
[37] = Toxicity in FVB mouse implanted with mouse Myc-CaP cells assessed as histopathological change in liver at 10 to 50 mg/kg,ip administrated daily for 14 consecutive days by hematoxylin and eosin staining based microscopic analysis; format: organism-based; settings: in vivo, dose 10-50 mg/kg
[38] = test system: Myc-CaP; test: Antiproliferative activity against mouse Myc-CaP cells assessed as inhibition of cell growth incubated for 72 hrs by MTT assay; format: functional, cell-based

Question: Which IC50 [1] does the source give for Oc1c(-c2cc(C(F)(F)F)n[nH]2)ccc(C#CCCN2CCOCC2)c1-c1ccc(Cl)c(C(F)(F)F)c1 here?
Answer: The IC50 was 1270 nM.

Question: And the IC50 at 72 h [2]?
Answer: Its IC50 at 72 h is 16600 nM.

Question: And the IC50 at 72 h [3]?
Answer: Its IC50 at 72 h is > 100000 nM.

Question: And the IC50 [4]?
Answer: The IC50 was 4320 nM.

Question: And the IC50 [5]?
Answer: The IC50 was 1240 nM.

Question: What about the IC50 [6] of the same compound?
Answer: Its IC50 is 1010 nM.

Question: And the IC50 [7]?
Answer: The IC50 was 1960 nM.

Question: And the IC50 [8]?
Answer: Its IC50 is 1090 nM.

Question: What about the IC50 [9] of the same compound?
Answer: The IC50 was 1890 nM.

Question: What about the IC50 [10] of the same compound?
Answer: Its IC50 is 890 nM.

Question: And the half-life [11]?
Answer: Its half-life is 3.22 h.

Question: And the AUC(0-t) [12]?
Answer: Its AUC(0-t) is 1400 ng·h/mL.

Question: And the AUC(0-t) [13]?
Answer: Its AUC(0-t) is 2220 ng·h/mL.

Question: What about the Vdss [14] of the same compound?
Answer: The Vdss was 38.43 L/kg.

Question: And the clearance [15]?
Answer: The clearance was 23.6 mL/min/kg.

Question: What about the CL/F [16] of the same compound?
Answer: Its CL/F is 74 mL/min/kg.

Question: And the bioavailability [17]?
Answer: The bioavailability was 31.7%.

Question: And the inhibition [18]?
Answer: Its inhibition is “Dose-Dependent Effect”.

Question: What about the inhibition [19] of the same compound?
Answer: Its inhibition is > 50%.

Question: What about the inhibition [20] of the same compound?
Answer: Its inhibition is “inactive”.

Question: What about the inhibition [21] of the same compound?
Answer: The inhibition was “Active”.

Question: And the Activity [22]?
Answer: The Activity was “Active”.

Question: And the Activity [23]?
Answer: The Activity was “inactive”.

Question: What about the inhibition [24] of the same compound?
Answer: The inhibition was “Active”.

Question: What about the Activity [25] of the same compound?
Answer: Its Activity is “Dose-Dependent Effect”.

Question: And the Activity [26]?
Answer: The Activity was “Dose-Dependent Effect”.

Question: And the inhibition in vivo at 75 mg/kg [27]?
Answer: The inhibition in vivo at 75 mg/kg was 69%.

Question: What about the inhibition in vivo at 100 mg/kg [28] of the same compound?
Answer: The inhibition in vivo at 100 mg/kg was 79%.

Question: And the Activity [29]?
Answer: The Activity was “Toxic”.

Question: And the Activity [30]?
Answer: The Activity was “Non-Toxic”.

Question: And the Activity [31]?
Answer: The Activity was “Non-Toxic”.

Question: What about the Activity [32] of the same compound?
Answer: The Activity was “Non-Toxic”.

Question: And the Activity [33]?
Answer: The Activity was “Dose-Dependent Effect”.

Question: And the inhibition in vivo at 30 mg/kg [34]?
Answer: Its inhibition in vivo at 30 mg/kg is 67%.

Question: And the inhibition in vivo at 50 mg/kg [35]?
Answer: Its inhibition in vivo at 50 mg/kg is 85%.

Question: What about the Activity [36] of the same compound?
Answer: Its Activity is “Non-Toxic”.

Question: And the Activity [37]?
Answer: Its Activity is “Non-Toxic”.

Question: What about the IC50 [38] of the same compound?
Answer: Its IC50 is 550 nM.
